# Source: patent publication US5866597A, “Use of triazine compounds for the treatment of memory and learning disorders” (Glaxo Wellcome Inc., priority 1993, dated 1999)
# Experiments:
# [1] = test system: scopolamine-induced pupillary dilatation in rats; test: Pupil diameter measurement in rats (Table 6); assay type: in vivo, Male Wistar rats; details: for Mean pupil diameter: ± SEM
# Description: 15 minutes before observation. Under these conditions, which were identical to those used in the learning experiments described in Example 2, changes in salivation and pupil diameter were measured. Salivation was measured by placing a piece of folded filter paper in the rat's mouth and measuring the diameter of the blot in mm after 1 minute. Pupil diameter was measured using a magnifying glass and graticule under normal lighting conditions. For both measures, comparisons were made between control and drug-treated groups using a Student's T-test on independent samples.
# Groups of 6 animals were used.
# [2] = test system: scopolamine-induced deficit in mice; test: Modified light-dark box memory test in mice, scopolamine-induced deficit, drug given pre-training (Table 1); assay type: in vivo, Male albino CD-1 mice; details: for Mean latency Day 1 / Mean latency Day 2: ± SEM
# Description: Male albino CD-1 mice obtained from Charles River were used. They were housed under controlled conditions (temperature 21±2 deg. C., humidity approx. 50%, 12 hour light/dark cycle, food and water ad lib) for one week before use. On the day before test, the mice were housed in groups of six in polythene boxes in the laboratory and marked for identification. Food and water were supplied ad lib. On the test day, animals were weighed and then dosed either 30 minutes before test (piracetam, ondansetron) one hour before test (compound A) or immediately after test.
# All drugs were dissolved or suspended in 0.25% (w/v) aqueous celacol, and administered orally (by gavage), i.p. or s.c. The dose volume was 10 ml/kg for all routes.
# The apparatus consisted of two boxes with an opening 90 mm×60 mm at floor level between them. A plastic door was used to close the opening when required. The smaller box (290 mm×120 mm×120 mm high) was made of opaque plastics, open at the top to allow illumination by normal laboratory lighting. The larger box (305 mm square×280 mm high) was enclosed apart from the single opening.
# This consisted of training, with retest 24 hours later. During training, animals were placed individually in the open box facing away from the end with the opening. After a period of exploration, they usually entered the dark box and the latency to entry in seconds was noted. The door to the dark box was closed, and after 30 seconds had elapsed, the animal was removed gently and returned to the holding box. Twenty-four hours later, an identical procedure was used, except that the session ended as soon as the animal had entered the dark box. The latency was again noted. During the interval, the animals were not handled, and were disturbed as little as possible. Each animal was used once only.
# Test drugs or control fluids were given before or immediately after the training session.
# Group comparisons were made between latencies to enter the dark compartment on the first and second occasions. For both training and retest occasions, comparisons were made between vehicle and treatment groups. […] The difference between latencies on the two occasions is presented as % decrease on Day 2 compared with Day 1.
# The mean latency to enter the dark box±standard error of the mean was calculated from a group of 12 animals. For a given treatment, figures in the columns labelled `Day 1` and `Day 2` show the mean latencies taken from the same group of animals. The difference between data obtained on the two days is illustrated by showing the % decrease, and the data compared using the Mann-Whitney U-test; NS indicates a p value>0.1.
# [3] = test system: scopolamine-induced deficit in rats; test: Light-dark box memory test in rats, sub-acute dosing: pre-training, pre-training and pre-retest, or four pre-treatments and before training and retest (Table 5); assay type: in vivo, Male Wistar rats; details: for Mean latency Day 5 / Mean latency Day 6: ± SEM
# Description: Male Wistar rats obtained from Charles River were used. They were housed under controlled conditions (temperature 21±2 deg. C., humidity approx. 50%, 12 hour light/dark cycle, food and water ad lib) for one week before use. On the day before test the rats were permanently housed in groups of six. Food and water were supplied ad lib. On the test day, animals were weighed and then dosed either 30 minutes before test (midazolam), one hour before test (compound A) or immediately after test.
# In the sub-acute dosing regimen (see `Procedure`) the rats, housed as above, received six doses of drug or vehicle by the oral route, each 24 hours apart.
# All drugs were dissolved or suspended in 0.25% (w/v) aqueous celacol, and administered orally (by gavage), i.p. or s.c. The dose volume was 5 ml/kg for all routes.
# An identical apparatus to that described in Example 1 was used, except that the smaller box measured 370 mm×260 mm×190 mm.
# This consisted of training as described for mice under section (d) of Example 1.
# The procedure was identical with that described above, except that seven groups of rats received compound A or control pre-treatment as 6 oral doses each 24 hours apart, as follows.
# Training took place 1 hour after the fifth dose i.e. on day 5. […] The usual retest was performed 24 hours later (on day 6), one hour after the sixth oral treatment.
# This was as described under section (e) of Example 1.
# The mean latency to enter the dark box±standard error of the mean was calculated from a group of 24 animals (controls in first block) or 12 animals (all other treatments). For a given treatment, figures in the columns labelled `Day 5` and `Day 6` show the mean latencies taken from the same group of animals. The difference between data obtained on the two days is illustrated by showing the % decrease, and the data compared using the Mann-Whitney U-test.
# [4] = saline s.c. + compound A 40 mg/kg p.o., 1 h pre-training
# [5] = scopolamine 1 mg/kg s.c. + compound A 10 mg/kg p.o.
# [6] = scopolamine 1 mg/kg s.c. + compound A 20 mg/kg p.o.
# [7] = scopolamine 1 mg/kg s.c. + compound A 40 mg/kg p.o.
# [8] = saline + compound A 2.5 mg/kg p.o. days 1-6
# [9] = saline + compound A 10 mg/kg p.o. day 5 only
# [10] = saline + compound A 10 mg/kg p.o. days 1-6
# [11] = saline + compound A 10 mg/kg p.o. days 5 and 6
# [12] = saline + compound A 40 mg/kg p.o. day 5 only
# [13] = saline + compound A 40 mg/kg p.o. days 5 and 6
# [14] = scopolamine 0.1 mg/kg s.c. + compound A 2.5 mg/kg p.o. days 1-6
# [15] = scopolamine 0.1 mg/kg s.c. + compound A 10 mg/kg p.o. day 5 only
# [16] = scopolamine 0.1 mg/kg s.c. + compound A 10 mg/kg p.o. days 1-6
# [17] = scopolamine 0.1 mg/kg s.c. + compound A 10 mg/kg p.o. days 5 and 6
# [18] = scopolamine 0.1 mg/kg s.c. + compound A 40 mg/kg p.o. day 5 only
# [19] = scopolamine 0.1 mg/kg s.c. + compound A 40 mg/kg p.o. days 5 and 6
compound,measurement,setting,value
"Nc1nnc(-c2cccc(Cl)c2Cl)c(N)n1 [Compound A, 3,5-Diamino-6-(2,3-dichlorophenyl)-1,2,4-triazine]",Mean pupil diameter,[1]; compound A 10 mg/kg p.o. + saline s.c.,7.00 ± 0.58 mm × 10
same,Mean pupil diameter,[1]; compound A 40 mg/kg p.o. + saline s.c.,7.75 ± 0.85 mm × 10
same,Mean pupil diameter,[1]; compound A 40 mg/kg p.o. + scopolamine 0.1 mg/kg s.c.,23.0 ± 1.78 mm × 10
same,Influence on scopolamine-induced change in pupil diameter,"[1]; compound A pretreatment, p>0.05 vs vehicle",no influence on the scopolamine-induced changes
same,"Difference between days, % Decrease","[2]; saline s.c. + compound A 40 mg/kg p.o., 1 h pre-training, p <0.01",45%
same,Mean latency Day 1,[2]; [4],23.3 ± 3.4 s
same,Mean latency Day 2,[2]; [4],12.8 ± 1.2 s
same,"Difference between days, % Decrease","[2]; scopolamine 1 mg/kg s.c. + compound A 10 mg/kg p.o., p NS",13%
same,Mean latency Day 1,[2]; [5],19.6 ± 1.7 s
same,Mean latency Day 2,[2]; [5],17.1 ± 2.2 s
same,"Difference between days, % Decrease","[2]; scopolamine 1 mg/kg s.c. + compound A 20 mg/kg p.o., p <0.05",28%
same,Mean latency Day 1,[2]; [6],18.6 ± 2.4 s
same,Mean latency Day 2,[2]; [6],13.3 ± 1.5 s
same,"Difference between days, % Decrease","[2]; scopolamine 1 mg/kg s.c. + compound A 40 mg/kg p.o., p <0.001",56%
same,Mean latency Day 1,[2]; [7],22.1 ± 3.2 s
same,Mean latency Day 2,[2]; [7],9.7 ± 1.2 s
same,Effect on scopolamine-induced deficit,[3]; compound A single dose 10 mg/kg before the learning trial,did not alter the scopolamine-induced deficit
same,"Diff. between days, %","[3]; saline + compound A 2.5 mg/kg p.o. days 1-6, p <0.01",46%
same,Mean latency Day 5,[3]; [8],35.3 ± 3.7 s
same,Mean latency Day 6,[3]; [8],19.3 ± 2.5 s
same,"Diff. between days, %","[3]; saline + compound A 10 mg/kg p.o. day 5 only, p <0.001",52%
same,Mean latency Day 5,[3]; [9],39.8 ± 3.9 s
same,Mean latency Day 6,[3]; [9],19.3 ± 2.5 s
same,"Diff. between days, %","[3]; saline + compound A 10 mg/kg p.o. days 1-6, p <0.01",44%
same,Mean latency Day 5,[3]; [10],34.3 ± 3.6 s
same,Mean latency Day 6,[3]; [10],19.1 ± 3.4 s
same,"Diff. between days, %","[3]; saline + compound A 10 mg/kg p.o. days 5 and 6, p <0.001",48%
same,Mean latency Day 5,[3]; [11],37.2 ± 3.1 s
same,Mean latency Day 6,[3]; [11],19.3 ± 2.6 s
same,"Diff. between days, %","[3]; saline + compound A 40 mg/kg p.o. day 5 only, p <0.01",45%
same,Mean latency Day 5,[3]; [12],35.2 ± 3.4 s
same,Mean latency Day 6,[3]; [12],19.3 ± 3.4 s
same,"Diff. between days, %","[3]; saline + compound A 40 mg/kg p.o. days 5 and 6, p <0.001",50%
same,Mean latency Day 5,[3]; [13],36.0 ± 3.2 s
same,Mean latency Day 6,[3]; [13],17.8 ± 2.2 s
same,"Diff. between days, %","[3]; scopolamine 0.1 mg/kg s.c. + compound A 2.5 mg/kg p.o. days 1-6, p NS",16%
same,Mean latency Day 5,[3]; [14],33.8 ± 3.0 s
same,Mean latency Day 6,[3]; [14],28.4 ± 3.4 s
same,"Diff. between days, %","[3]; scopolamine 0.1 mg/kg s.c. + compound A 10 mg/kg p.o. day 5 only, p NS",-4%
same,Mean latency Day 5,[3]; [15],34.3 ± 2.8 s
same,Mean latency Day 6,[3]; [15],15.8 ± 4.5 s
same,"Diff. between days, %","[3]; scopolamine 0.1 mg/kg s.c. + compound A 10 mg/kg p.o. days 1-6, p <0.01",41%
same,Mean latency Day 5,[3]; [16],35.4 ± 3.2 s
same,Mean latency Day 6,[3]; [16],20.8 ± 3.6 s
same,"Diff. between days, %","[3]; scopolamine 0.1 mg/kg s.c. + compound A 10 mg/kg p.o. days 5 and 6, p NS (0.1)",28%
same,Mean latency Day 5,[3]; [17],38.2 ± 4.3 s
same,Mean latency Day 6,[3]; [17],27.7 ± 3.5 s
same,"Diff. between days, %","[3]; scopolamine 0.1 mg/kg s.c. + compound A 40 mg/kg p.o. day 5 only, p printed #0.001",46%
same,Mean latency Day 5,[3]; [18],33.3 ± 2.6 s
same,Mean latency Day 6,[3]; [18],18.0 ± 2.0 s
same,"Diff. between days, %","[3]; scopolamine 0.1 mg/kg s.c. + compound A 40 mg/kg p.o. days 5 and 6, p <0.01",48%
same,Mean latency Day 5,[3]; [19],33.6 ± 3.6 s
same,Mean latency Day 6,[3]; [19],17.5 ± 2.5 s
